In PubChem BioAssay (NCI):
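Briefly, cells in 96-well plates were exposed to five compound concentrations for 48 h, and endpoints were estimated by linear interpolation. TGI denotes the concentration required for complete inhibition of growth.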

Experiments:
Assay in all cases: NCI-60 cell line screen, 48 h
HCT-15 colon = tested on: HCT-15 colon
HL-60(TB) leukemia = tested on: HL-60(TB) leukemia
HOP-62 NSCLC = tested on: HOP-62 NSCLC
K-562 leukemia = tested on: K-562 leukemia
MALME-3M melanoma = tested on: MALME-3M melanoma
MDA-MB-435 = tested on: MDA-MB-435
MOLT-4 leukemia = tested on: MOLT-4 leukemia
NCI-H522 lung = tested on: NCI-H522 lung
SK-MEL-28 melanoma = tested on: SK-MEL-28 melanoma
SK-OV-3 ovarian = tested on: SK-OV-3 ovarian
SN12C renal = tested on: SN12C renal
U251 CNS = tested on: U251 CNS

## Cc1cn([C@@H]2O[C@H](CO[Si](C)(C)C(C)(C)C)[C@]3(O[C@H]3C(=O)NO)[C@H]2O[Si](C)(C)C(C)(C)C)c(=O)[nH]c1=O
HCT-15 colon
  TGI: 3.62 µM
HL-60(TB) leukemia
  TGI: 3.57 µM
HOP-62 NSCLC
  TGI: 3.52 µM
K-562 leukemia
  TGI: 6.48 µM
MALME-3M melanoma
  TGI: 5.07 µM
MDA-MB-435
  TGI: 4.38 µM
MOLT-4 leukemia
  TGI: 4.62 µM
NCI-H522 lung
  TGI: 3.12 µM
SK-MEL-28 melanoma
  TGI: 3.33 µM
SK-OV-3 ovarian
  TGI: 3.66 µM
SN12C renal
  TGI: 3.08 µM
U251 CNS
  TGI: 3.07 µM

## CCCc1nnc2sc(COc3ccc(OCc4nn5c(CCC)nnc5s4)c(Cl)c3)nn12
HCT-15 colon
  TGI: > 100 µM
HL-60(TB) leukemia
  TGI: 40.9 µM
HOP-62 NSCLC
  TGI: > 100 µM
K-562 leukemia
  TGI: > 100 µM
MALME-3M melanoma
  TGI: > 100 µM
MDA-MB-435
  TGI: 59 µM
MOLT-4 leukemia
  TGI: > 100 µM
NCI-H522 lung
  TGI: > 100 µM
SK-MEL-28 melanoma
  TGI: > 100 µM
SK-OV-3 ovarian
  TGI: > 100 µM
SN12C renal
  TGI: > 100 µM
U251 CNS
  TGI: > 100 µM

## O=c1[nH]c(=S)[nH]cc1CN1CCOCC1
HCT-15 colon
  TGI: > 100 µM
HL-60(TB) leukemia
  TGI: > 100 µM
HOP-62 NSCLC
  TGI: > 100 µM
K-562 leukemia
  TGI: > 100 µM
MALME-3M melanoma
  TGI: > 100 µM
MDA-MB-435
  TGI: > 100 µM
MOLT-4 leukemia
  TGI: > 100 µM
NCI-H522 lung
  TGI: > 100 µM
SK-MEL-28 melanoma
  TGI: > 100 µM
SK-OV-3 ovarian
  TGI: > 100 µM
SN12C renal
  TGI: > 100 µM
U251 CNS
  TGI: > 100 µM

## Clc1ccc(OCC2NC3CCC2CC3)cn1 (stereo not given)
HCT-15 colon
  TGI: 45.5 µM
HL-60(TB) leukemia
  TGI: 51.9 µM
HOP-62 NSCLC
  TGI: 67.1 µM
K-562 leukemia
  TGI: 41.4 µM
MALME-3M melanoma
  TGI: 39.6 µM
MDA-MB-435
  TGI: 43.4 µM
MOLT-4 leukemia
  TGI: 47.5 µM
NCI-H522 lung
  TGI: 40.1 µM
SK-MEL-28 melanoma
  TGI: > 100 µM
SK-OV-3 ovarian
  TGI: > 100 µM
SN12C renal
  TGI: 96.6 µM
U251 CNS
  TGI: 30.7 µM

## CC(=O)c1ccc(Br)cc1NC1=CC(=O)c2ncccc2C1=O
HCT-15 colon
  TGI: 10.3 µM
HL-60(TB) leukemia
  TGI: 3.61 µM
HOP-62 NSCLC
  TGI: 13.1 µM
K-562 leukemia
  TGI: 10.1 µM
MALME-3M melanoma
  TGI: 5.69 µM
MDA-MB-435
  TGI: 3.06 µM
MOLT-4 leukemia
  TGI: 9.6 µM
NCI-H522 lung
  TGI: 10.4 µM
SK-MEL-28 melanoma
  TGI: 20.7 µM
SK-OV-3 ovarian
  TGI: 29.1 µM
SN12C renal
  TGI: 19.1 µM
U251 CNS
  TGI: 19.7 µM
